# Assay results from PubChem BioAssay AID2060908 (Molecular Pharmacology Branch, DTP, NCI, 2025).
# Tested on: 186277-243-T-J2-PDC complex spheroids, viability
# Experiment: Anticancer human tumor 186277-243-T-J2-PDC patient-derived colon adenocarcinoma cell line growth inhibition [RAS]
# Details: for IC50: curve of first compound; for viability, T/C: stronger effect = lower value
# Outline: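 Tumour cells grown as complex spheroids with HUVEC endothelial cells and mesenchymal stem cells, treated with RAS pathway inhibitor combinations. Each agent spans half-log steps from near clinical Cmax, or 10 microM where Cmax is unknown.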
# 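Note: spheroids exposed to compounds for 7 days before viability read.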
structure (smiles),measurement,setting,value
Cc1nc(N2CCC3(CC2)COC(C)C3N)c(CO)nc1Sc1ccnc(N)c1Cl (configuration not stated) + CCn1c(-c2cccnc2C(C)OC)c2c3cc(ccc31)N1CCOC(CC(NC(=O)C(C(C)C)N(C)C(=O)C3(F)CCN(C(=O)C#CC(C)(C)N(C)C)CC3)C(=O)N3CCCC(N3)C(=O)OCC(C)(C)C2)C1,IC50,second compound 0.000949 µM,> 10 µM
same,IC50,second compound 0.003 µM,> 10 µM
same,IC50,second compound 0.00949 µM,> 10 µM
same,IC50,second compound 0.03 µM,> 10 µM
same,IC50,second compound 0.0949 µM,> 10 µM
same,IC50,second compound 0.3 µM,> 10 µM
same,"viability, T/C","second compound 0.000949 µM, first compound 0.0316 µM",88.9%
same,"viability, T/C","second compound 0.000949 µM, first compound 0.1 µM",85.4%
same,"viability, T/C","second compound 0.000949 µM, first compound 0.316 µM",111%
same,"viability, T/C","second compound 0.000949 µM, first compound 1 µM",104%
same,"viability, T/C","second compound 0.000949 µM, first compound 3.16 µM",141%
same,"viability, T/C","second compound 0.000949 µM, first compound 10 µM",131%
same,"viability, T/C","second compound 0.003 µM, first compound 0.0316 µM",91.8%
same,"viability, T/C","second compound 0.003 µM, first compound 0.1 µM",100%
same,"viability, T/C","second compound 0.003 µM, first compound 0.316 µM",98.2%
same,"viability, T/C","second compound 0.003 µM, first compound 1 µM",114%
same,"viability, T/C","second compound 0.003 µM, first compound 3.16 µM",133%
same,"viability, T/C","second compound 0.003 µM, first compound 10 µM",130%
same,"viability, T/C","second compound 0.00949 µM, first compound 0.0316 µM",99.9%
same,"viability, T/C","second compound 0.00949 µM, first compound 0.1 µM",130%
same,"viability, T/C","second compound 0.00949 µM, first compound 0.316 µM",105%
same,"viability, T/C","second compound 0.00949 µM, first compound 1 µM",113%
same,"viability, T/C","second compound 0.00949 µM, first compound 3.16 µM",132%
same,"viability, T/C","second compound 0.00949 µM, first compound 10 µM",128%
same,"viability, T/C","second compound 0.03 µM, first compound 0.0316 µM",92.3%
same,"viability, T/C","second compound 0.03 µM, first compound 0.1 µM",110%
same,"viability, T/C","second compound 0.03 µM, first compound 0.316 µM",108%
same,"viability, T/C","second compound 0.03 µM, first compound 1 µM",126%
same,"viability, T/C","second compound 0.03 µM, first compound 3.16 µM",137%
same,"viability, T/C","second compound 0.03 µM, first compound 10 µM",116%
same,"viability, T/C","second compound 0.0949 µM, first compound 0.0316 µM",98.2%
same,"viability, T/C","second compound 0.0949 µM, first compound 0.1 µM",123%
same,"viability, T/C","second compound 0.0949 µM, first compound 0.316 µM",117%
same,"viability, T/C","second compound 0.0949 µM, first compound 1 µM",127%
same,"viability, T/C","second compound 0.0949 µM, first compound 3.16 µM",137%
same,"viability, T/C","second compound 0.0949 µM, first compound 10 µM",101%
same,"viability, T/C","second compound 0.3 µM, first compound 0.0316 µM",122%
same,"viability, T/C","second compound 0.3 µM, first compound 0.1 µM",114%
same,"viability, T/C","second compound 0.3 µM, first compound 0.316 µM",107%
same,"viability, T/C","second compound 0.3 µM, first compound 1 µM",92.9%
same,"viability, T/C","second compound 0.3 µM, first compound 3.16 µM",92.1%
same,"viability, T/C","second compound 0.3 µM, first compound 10 µM",62.8%
